For series [1], the target named is T1, MMP-2 (Homo sapiens, UniProt P08253).
T1 construct: endogenous in cells; host or cells: human gingival fibroblasts (serum-free culture medium)
T1 sequence (P08253 110-660): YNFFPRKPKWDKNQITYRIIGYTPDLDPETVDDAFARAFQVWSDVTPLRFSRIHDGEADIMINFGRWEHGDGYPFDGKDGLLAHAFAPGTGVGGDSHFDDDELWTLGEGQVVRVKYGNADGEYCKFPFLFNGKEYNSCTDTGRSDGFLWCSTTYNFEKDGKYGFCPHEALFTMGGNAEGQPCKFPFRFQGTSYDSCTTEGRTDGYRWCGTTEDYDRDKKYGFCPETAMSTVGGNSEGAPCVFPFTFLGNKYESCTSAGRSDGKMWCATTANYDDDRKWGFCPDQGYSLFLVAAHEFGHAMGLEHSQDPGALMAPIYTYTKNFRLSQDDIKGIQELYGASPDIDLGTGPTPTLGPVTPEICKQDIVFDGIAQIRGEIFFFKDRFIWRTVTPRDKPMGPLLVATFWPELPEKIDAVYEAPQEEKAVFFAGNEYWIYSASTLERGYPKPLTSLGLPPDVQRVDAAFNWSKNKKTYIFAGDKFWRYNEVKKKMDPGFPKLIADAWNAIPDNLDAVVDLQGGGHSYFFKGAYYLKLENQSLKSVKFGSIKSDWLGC
Nature of the series: β-casein degradation by MMP-2 (SDS gel). In kind it is biochemical. As to conditions: APMA-activated MMP-2, β-casein. The method, then: (§1) After 1 h pretreatment with the peptides, APMA-activated MMP-2 (A, C) or proMMP-2 (B, D) was incubated with the casein for 2 h. 52 μM β-casein was used as substrate for MMPs. Shown is Coomassie Blue-staining of the 21 kD β-casein (lane 1) and its fragments (lanes 2-9) resolved by SDS-PAGE (A, B); CTTHWGFTLC(SEQ ID NO:3) was used at the concentrations of (2) 0 μg/ml, (3) 75, (4) 50, (5) 25, (6) 10, (7) 5, (8) 1, and (9) 0.5 μg/ml in the lanes 2-9, respectively. (C, D); the concentrations of CRRHWGFEFC(SEQ ID. NO:2) were 0, 250, 100, 50, 25, 10, 1, and 0.5 μg/ml, respectively.
(§2) For the gelatin and casein degradation assays, purified MMP-2 and MMP-9 (50-100 ng) were first incubated for 60 min with various concentrations of the peptide inhibitors, after which a 21 kDa β-casein (52 μM) or [^125I]-gelatin substrate was added. After incubation for 2 h at 22 ° C., degradation of the casein was analyzed by SDS gel electrophoresis. The degradation of [^125I]-gelatin was determined by counting radioactivity in the supernatant after precipitation of undegraded gelatin with 20% trichloroacetic acid.
(§3) We also used β-casein as a substrate for the gelatinases and analyzed the degradation products by SDS gel electrophoresis.

The target in series [2] is T2, proMMP-2 (Homo sapiens, UniProt P08253).
T2 construct: endogenous in cells; host or cells: human gingival fibroblasts (serum-free culture medium)
T2 sequence (P08253 30-660 limits assumed): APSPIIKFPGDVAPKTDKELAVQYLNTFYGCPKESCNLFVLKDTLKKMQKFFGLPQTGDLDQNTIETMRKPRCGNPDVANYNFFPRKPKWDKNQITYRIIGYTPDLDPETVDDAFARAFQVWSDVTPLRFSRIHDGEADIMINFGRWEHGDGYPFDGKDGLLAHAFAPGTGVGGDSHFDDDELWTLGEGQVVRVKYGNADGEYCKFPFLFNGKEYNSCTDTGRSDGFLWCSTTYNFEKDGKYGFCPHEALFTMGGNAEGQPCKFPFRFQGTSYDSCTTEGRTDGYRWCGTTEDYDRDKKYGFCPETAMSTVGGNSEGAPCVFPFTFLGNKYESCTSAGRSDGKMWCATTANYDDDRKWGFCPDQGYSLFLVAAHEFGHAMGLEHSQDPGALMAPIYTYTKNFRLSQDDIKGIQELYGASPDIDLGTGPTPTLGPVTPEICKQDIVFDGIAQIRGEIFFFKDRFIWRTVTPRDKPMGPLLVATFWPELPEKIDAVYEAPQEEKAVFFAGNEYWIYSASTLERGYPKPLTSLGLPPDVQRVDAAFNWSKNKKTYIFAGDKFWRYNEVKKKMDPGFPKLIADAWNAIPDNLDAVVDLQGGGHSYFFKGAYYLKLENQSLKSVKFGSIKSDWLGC
Nature of the series: β-casein degradation by proMMP-2 not preactivated with APMA. In kind it is biochemical. The method, then: as §1, §2, §3

In series [3] the target is T3, proMMP-9 (Homo sapiens, UniProt P14780).
T3 construct: from tissue; host or cells: human neutrophils
The series is described as follows: [125I]-gelatin degradation by proMMP-9 (autoactivating). Format: biochemical. The method, then:
(§4) ProMMP-9 was purified from human neutrophils and activated with aminophenyl mercuric acetate (APMA) essentially as described by Hibbs et al. (1985). For the selection of MMP-9 binding phage, APMA-activated MMP-9 was coated on microtiter wells overnight at 4° C. using a concentration of 1 μg/ml, after which the […] were saturated with 5 % bovine serum albumin. In the first panning, the library was incubated overnight at 4° C. in 50 mM Tris-HCl/0.1 M NaCl buffer (pH 7.5) (TBS) containing 1% bovine serum albumin, and after extensive washing the bound phage were eluted with low pH buffer. In the subsequent pannings, the amplified phage were allowed to bind for 1 h at 22° C. […] The bound phage were quantitated by adding 50 ng per well of anti-M13 antibody (Pharmacia, Uppsala, Sweden) labeled with an Europium-chelate (Wallac Ltd., Turku, Finland). After incubation for 45 min followed by washing, the fluorescence was measured with 1230 Arcus fluorometer (Wallac Ltd., Turku, Finland).
(§5) For the gelatin and casein degradation assays, purified MMP-2 and MMP-9 (50-100 ng) were first incubated for 60 min with various concentrations of the peptide inhibitors, after which a 21 kDa β-casein (52 μM) or [^125I]-gelatin substrate was added. After incubation for 2 h at 22 ° C., degradation of the casein was analyzed by SDS gel electrophoresis. […]

In series [4] the target is T4, APMA-activated MMP-9 (Homo sapiens, UniProt P14780).
T4 construct: from tissue; host or cells: human neutrophils
Nature of the series: [125I]-gelatin degradation by APMA-activated MMP-9. In kind it is biochemical. The method, then: as §4, §5

Series [5] in a line: Solubility in aqueous buffers.
The nature of series [6]: Toxicity when injected into animals. As to conditions: in vivo.
Series [7] deals with HT1080 fibrosarcoma cells. Nature of the series: Transwell random migration of HT1080 cells. Format: cell-based. Particulars: 500 μg/ml, control peptides. The method, then: The endothelial cell line HUVEC (human umbilical vein endothelial cells, obtained from the ATCC, Rockville, Md.) was grown in RPMI 1640 medium containing penicillin (100 units/ml), streptomycin (100 μg/ml), 10 mM HEPES, 30 μg/ml endothelial cell growth supplement (Biomedical Technologies, Stoughton, Mass.), and 20% fetal calf serum. The HT1080 fibrosarcoma cells (ATCC, Rockville, Md.), C8161 melanoma cells and Eahy926 cells (derivative of HUVEC) were cultured in Dulbecco's modified Eagle's medium containing the antibiotics, 10% fetal calf serum, and hypoxanthine/aminopterin/thymidine additive with the Eahy926 cells. Cultures of cells were harvested with trypsin-EDTA (endothelial cells) or EDTA alone (other cells), washed, and resuspended in the full serum-containing media as indicated above.
Random cell migration was studied using […] pore size and 6.5 mm diameter Transwell inserts (Costar, Cambridge, Mass.) that were equilibrated in the serum-containing medium for 2 h before use. Tumor cell invasion was studied using 6.4 mm diameter Boyden chambers precoated with Matrigel (Becton Dickinson, Bedford, MA) and equilibrated in the serum-containing medium. […] Cells were removed from the upper surface of the membrane with a cotton swab, and the cells migrated on the undersite of the membrane were counted microscopically, or alternatively quantitated by scanning.

The target of series [8] is T2, proMMP-2. Nature of the series: [125I]-gelatin degradation by proMMP-2. In kind it is biochemical. As to conditions: 10 μg/ml. The method, then: as §2
(§6) proMMP-2 was purified from serum-free culture medium of human gingival fibroblasts.

Series [9] concerns the target T5, APMA-activated MMP-2 (Homo sapiens, UniProt P08253).
T5 construct: endogenous in cells; host or cells: human gingival fibroblasts (serum-free culture medium)
T5 sequence (P08253 110-660): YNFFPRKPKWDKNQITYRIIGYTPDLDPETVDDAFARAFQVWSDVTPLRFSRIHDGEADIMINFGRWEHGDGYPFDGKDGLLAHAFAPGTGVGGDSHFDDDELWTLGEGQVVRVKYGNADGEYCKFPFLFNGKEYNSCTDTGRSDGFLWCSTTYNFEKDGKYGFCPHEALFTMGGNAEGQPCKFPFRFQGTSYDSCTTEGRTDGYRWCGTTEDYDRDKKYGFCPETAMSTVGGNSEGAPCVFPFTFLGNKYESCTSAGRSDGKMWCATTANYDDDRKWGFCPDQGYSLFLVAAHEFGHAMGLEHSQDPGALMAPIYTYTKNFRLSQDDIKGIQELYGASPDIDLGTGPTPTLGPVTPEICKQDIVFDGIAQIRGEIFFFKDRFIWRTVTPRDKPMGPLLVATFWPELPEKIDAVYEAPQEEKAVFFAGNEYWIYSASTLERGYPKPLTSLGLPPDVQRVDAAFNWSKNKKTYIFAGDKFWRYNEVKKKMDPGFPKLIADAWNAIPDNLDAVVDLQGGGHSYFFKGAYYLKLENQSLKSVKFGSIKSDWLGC
Nature of the series: [125I]-gelatin degradation by APMA-activated MMP-2. Format: biochemical. As to conditions: 10 μg/ml. The method, then:
as §2, §6

We go through five molecules from US6624144B1, “Matrix metalloproteinase inhibitors and down-regulators” (CTT Cancer Targeting Technologies Oy, priority 1998, dated 2003).

Bridge positions count the residues as written; N and C are the ends. Ends that are not written are not given here. Peptide text beside a SMILES is read from it.

T3 sequence (P14780 20-707 limits assumed): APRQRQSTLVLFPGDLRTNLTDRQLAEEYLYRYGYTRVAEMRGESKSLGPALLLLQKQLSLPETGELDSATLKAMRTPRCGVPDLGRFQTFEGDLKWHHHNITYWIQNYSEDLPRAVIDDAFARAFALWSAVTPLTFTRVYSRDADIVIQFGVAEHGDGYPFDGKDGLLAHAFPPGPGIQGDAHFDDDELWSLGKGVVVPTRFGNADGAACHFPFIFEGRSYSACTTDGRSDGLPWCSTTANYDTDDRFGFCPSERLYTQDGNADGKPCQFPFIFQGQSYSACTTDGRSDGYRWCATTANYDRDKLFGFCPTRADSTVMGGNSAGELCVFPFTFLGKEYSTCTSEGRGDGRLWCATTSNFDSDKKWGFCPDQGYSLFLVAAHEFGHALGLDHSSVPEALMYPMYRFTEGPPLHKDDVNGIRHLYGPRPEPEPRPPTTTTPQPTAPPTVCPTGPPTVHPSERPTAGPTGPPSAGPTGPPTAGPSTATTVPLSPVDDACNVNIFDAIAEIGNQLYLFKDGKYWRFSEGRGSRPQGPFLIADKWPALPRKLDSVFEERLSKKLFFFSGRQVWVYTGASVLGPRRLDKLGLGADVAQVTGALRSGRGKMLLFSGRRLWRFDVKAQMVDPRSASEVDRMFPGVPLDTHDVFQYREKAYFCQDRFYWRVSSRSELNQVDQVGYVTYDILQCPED
T4 sequence (P14780 107-707 limits assumed): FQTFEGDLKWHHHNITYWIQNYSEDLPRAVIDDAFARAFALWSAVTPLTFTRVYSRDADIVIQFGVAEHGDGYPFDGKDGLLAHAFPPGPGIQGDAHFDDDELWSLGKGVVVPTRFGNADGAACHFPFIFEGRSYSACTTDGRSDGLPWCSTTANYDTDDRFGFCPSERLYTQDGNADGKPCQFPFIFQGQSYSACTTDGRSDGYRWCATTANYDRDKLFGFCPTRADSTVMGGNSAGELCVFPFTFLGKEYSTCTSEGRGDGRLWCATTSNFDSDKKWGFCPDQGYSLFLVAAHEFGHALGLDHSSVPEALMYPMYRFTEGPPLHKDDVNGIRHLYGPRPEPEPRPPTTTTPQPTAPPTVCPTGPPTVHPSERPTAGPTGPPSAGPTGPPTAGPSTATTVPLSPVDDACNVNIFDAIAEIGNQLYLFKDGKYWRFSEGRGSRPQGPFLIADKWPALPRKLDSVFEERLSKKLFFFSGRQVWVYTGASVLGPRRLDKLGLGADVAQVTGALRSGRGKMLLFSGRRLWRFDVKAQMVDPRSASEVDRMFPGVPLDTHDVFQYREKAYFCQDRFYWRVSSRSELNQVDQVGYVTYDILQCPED

Usually IC50 stands for the midpoint of a concentration-inhibition curve. Take `N=C(N)NCCC[C@@H]1NC(=O)[C@H](CCCNC(=N)N)NC(=O)[C@@H](N)CSSC[C@@H](C(=O)O)NC(=O)[C@H](Cc2ccccc2)NC(=O)[C@H](CCC(=O)O)NC(=O)[C@H](Cc2ccccc2)NC(=O)CNC(=O)[C@H](Cc2c[nH]c3ccccc23)NC(=O)[C@H](Cc2c[nH]cn2)NC1=O` [CRRHWGFEFC] (H-CRRHWGFEFC-OH; disulfide 1-10; N-terminus and C-terminus assumed): the IC50 was about 18.7 µM in series [1]; 18.7 µM in [2]; about 7.47 µM in [4] (APMA-activated MMP-9, read-out: half-maximal inhibitory value (IC50), [125I]-gelatin degradation (converted)). Also, the “inhibition of proMMP-9 gelatinolytic activity” value in series [3] (peptide 10 μg/ml) was “more than 50%”.
In the case of RAVRALWRC [RAVRALWRC], in [5], the solubility entry is “highly soluble”.
On to `CC(C)C[C@@H]1NC(=O)[C@H]([C@@H](C)O)NC(=O)[C@H](Cc2ccccc2)NC(=O)CNC(=O)[C@H](Cc2c[nH]c3ccccc23)NC(=O)[C@H](Cc2c[nH]cn2)NC(=O)[C@H]([C@@H](C)O)NC(=O)[C@H]([C@@H](C)O)NC(=O)[C@@H](N)CSSC[C@@H](C(=O)O)NC1=O` [CTTHWGFTLC] (H-CTTHWGFTLC-OH; disulfide 1-10; N-terminus and C-terminus assumed), for which the IC50 in series [1] is about 4.29 µM; in series [2] it was 4.29 µM. Further, the “toxicity when injected into animals” value in series [6] is on record as “no toxicity”.
For “EVGTGSCNLECVSTNPLSGTEQ (Targeted to Homo sapiens)”, in series [7], the “effect on cell migration” value is recorded as “None of these control peptides affected cell migration”. Besides, in [5], the solubility result was “highly soluble”.
“linear CRRHWGFEFC: linearized version of CRRHWGFEFC prepared by reducing and alkylating the cysteine residues (also: cysteines reduced and alkylated, alkylating agent not given here)”: in series [8], the “gelatinolysis by proMMP-2” value was “virtually inactive”. Moreover, the “gelatinolysis by APMA-activated MMP-2” value in [9] was “virtually inactive”. Further, in [3] (10 μg/ml (FIG. 2)), the “inhibitory activity against proMMP-9 gelatinolysis” value is “loss of inhibitory activity”. Moreover, the “inhibitory activity against APMA-activated MMP-9 gelatinolysis” value in series [4] (10 μg/ml (FIG. 2)) is reported as “loss of inhibitory activity”.
